Measurements: PMC5367011, “Sterols from Thai Marine Sponge Petrosia (Strongylophora) sp. and Their Cytotoxicity” (Marine Drugs, 2017)

How the values were obtained:
Type in all cases: cell-based
[1] = tested on: HuCCA-1 (human chlolangiocarcinoma); experiment: Cytotoxicity, MTT assay, HuCCA-1; settings: for IC50: HuCC-A1, mean ± S.D. (n = 3), MTT assay
Experimental: (§1) In our study, several compounds (1–4, 6–8, 10, and 12–16) were evaluated for their cytotoxicity using a panel of human cancer cell lines, including MOLT-3 (acute lymphoblastic leukemia), HepG2 (hepatocarcinoma), A549 (human lung cancer), HuCCA-1 (human chlolangiocarcinoma), HeLa (cervical carcinoma), and MDA-MB-231 (hormone-independent breast cancer) as well as a normal cell line, MRC-5 (normal human embryonic lung fibroblasts).
(§2) The cytotoxic activity toward a panel of mammalian cancer cell lines (HepG2, A549, HuCCA-1, HeLa, MDA-MB-231) were tested using the 3-(4,5-dimethylthiazol-2-yl)-2,5-diphenyltetrazolium bromide (MTT) assay, while the activity toward MOLT-3 cancer cell line was performed by the 2,3-bis-(2-methoxy-4-nitro-5-sulphenyl)-(2H)-tetrazolium-5-carboxanilide (XTT) assay. Etoposide and doxorubicin were used as positive controls (Table 4).

[2] = tested on: MOLT-3 (acute lymphoblastic leukemia); experiment: Cytotoxicity, XTT assay, MOLT-3; settings: Homo sapiens; for IC50: mean ± S.D. (n = 3), XTT assay
Experimental: as §1, §2

A549 (human lung cancer) = experiment: Cytotoxicity, MTT assay, A549; settings: for IC50: mean ± S.D. (n = 3), MTT assay
Experimental: as §1, §2

HepG2 (hepatocarcinoma) = experiment: Cytotoxicity, MTT assay, HepG2; settings: Homo sapiens; for IC50: HepG-2, mean ± S.D. (n = 3), MTT assay
Experimental: as §1, §2

[3] = tested on: MRC-5 (normal human embryonic lung fibroblasts); experiment: Cytotoxicity toward normal cell line MRC-5; settings: for IC50: MRC5, MRC-5 normal cell line, mean ± S.D. (n = 3)
Experimental: as §1

[4] = tested on: HeLa (cervical carcinoma); experiment: Cytotoxicity, MTT assay, HeLa; settings: Homo sapiens, mean ± S.D. (n = 3)
Experimental: as §1, §2

[5] = tested on: MDA-MB-231 (hormone-independent breast cancer); experiment: Cytotoxicity, MTT assay, MDA-MB-231; settings: Homo sapiens, mean ± S.D. (n = 3)
Experimental: as §1, §2

| Compound | IC50 [1] [µM] | IC50 [2] [µM] | IC50 (A549 (human lung cancer)) [µM] | IC50 (HepG2 (hepatocarcinoma)) [µM] | IC50 [3] [µM] | also measured |
| --- | --- | --- | --- | --- | --- | --- |
| CC(CCC(C)(O)C1CCC2C3C(O)CC4CC(O)CCC4(C)C3CC(O)C21C)C1CC1C (stereo not drawn) [Compound 1, 26,27-cyclo-24,27-dimethylcholestan-3α,7α,12β,20β-tetraol] | 21.3 ± 1.84 | 17.9 ± 0.26 | 20 ± 1.52 | 12.7 ± 1.67 | 40.1 ± 1.23 |  |
| C[C@H](CC[C@](C)(O)[C@H]1CC[C@@]2(O)[C@@H]3CC[C@H]4C[C@H](O)CC[C@]4(C)[C@H]3C[C@@H](O)[C@]12C)[C@@H]1C[C@H]1C [Compound 2, 26,27-cyclo-24,27-dimethylcholestan-3α,12β,14,20β-tetraol] | 37.9 ± 3.01 | 32.4 ± 1.08 | 38.59 ± 0.24 | 44.8 ± 3.79 | 60.6 ± 12.8 |  |
| C[C@H](CC[C@](C)(O)[C@H]1CCC2[C@@H]3[C@H](O)C=C4C[C@@H](O)CC[C@]4(C)[C@H]3C[C@@H](O)[C@@]21C)[C@@H]1C[C@H]1C (stereo partly drawn) [Compound 3, 26,27-cyclo-24,27-dimethylcholest-5-ene-3β,7α,12β,20β-tetraol] | 47.5 ± 6.96 |  |  | 44.6 ± 9.76 |  | inhibition at 27.17 µM ([2]; at 27.17 μM): 8%; inhibition at 54.35 µM (A549 (human lung cancer); at 54.35 μM): 9%; inhibition at 54.35 µM ([3]; MRC5, MRC-5, at 54.35 μM): 24.7% |
| COC1(OC)CC[C@@]2(C)[C@@H](C[C@@H](O)[C@@H]3[C@@H]2C[C@@H](O)[C@@]2(C)[C@H]3CC[C@@H]2[C@@](C)(O)CC[C@@H](C)[C@@H]2C[C@H]2C)C1 [Compound 4, 26,27-cyclo-24,27-dimethylcholestan-3,3-dimethoxy-7α,12β,20β-triol] |  |  |  |  |  | inhibition at 12.35 µM ([1]; HuCC-A1, at 12.35 μM): 0%; inhibition at 12.35 µM ([2]; at 12.35 μM): 0%; inhibition at 12.35 µM (A549 (human lung cancer); at 12.35 μM): 2%; inhibition at 24.7 µM (HepG2 (hepatocarcinoma); HepG-2, at 24.70 μM): 20.3%; inhibition at 24.7 µM ([3]; MRC5, MRC-5, at 24.70 μM): 5.45% |
| C[C@H](CC[C@](C)(O)[C@H]1CC[C@H]2[C@@H]3CC[C@H]4C[C@H](O)CC[C@]4(C)[C@H]3C[C@@H](O)[C@@]21C)[C@@H]1C[C@H]1C [Compound 6, aragusterol I] | 37.06 ± 0.36 | 20.1 ± 0.52 | 34.7 ± 17.7 | 54.9 ± 2.04 | 63.4 ± 8.3 |  |
| C[C@H](CC[C@](C)(O)[C@H]1CC[C@H]2[C@@H]3CC[C@H]4CC(=O)CC[C@]4(C)[C@H]3C[C@@H](O)[C@@]21C)[C@H]1C[C@@H]1C [Compound 7, aragusterol B] | 25.1 ± 2.27 | 16.3 ± 18 | 23.6 ± 2 | 26.5 ± 5.32 |  | IC50 [4]: 11.23 ± 0.05 µM; IC50 [5]: 27 ± 7.79 µM |
| CC(CCC(C)(O)[C@H]1CC[C@H]2[C@@H]3[C@H](O)C[C@H]4CC(=O)CC[C@]4(C)[C@H]3C[C@@H](O)[C@]12C)C1CC1C (stereo partly drawn) [Compound 8, xestokerol B] | 103 ± 2.29 |  | 32.6 ± 3.64 | 18.2 ± 1.86 | 90.1 ± 6.88 | inhibition at 108.7 µM ([2]; at 108.70 μM): 43% |
| C[C@H](CC[C@@H](C)[C@H]1CC[C@H]2[C@@H]3C(=O)C=C4C[C@@H](O)CC[C@]4(C)[C@H]3CC[C@]12C)[C@@H]1C[C@H]1C [Compound 10, 7-oxopetrosterol] |  |  | 52.1 ± 3.35 | 49.8 ± 3.96 | 44.8 ± 1.36 | inhibition at 58.69 µM ([1]; HuCC-A1, at 58.69 μM): 44%; inhibition at 29.34 µM ([2]; at 29.34 μM): 2% |
| CC(C)CC=CC(C)(O)C1CCC2C3C(O)CC4CC(=O)CCC4(C)C3CC(O)C21C (stereo not drawn) [Compound 12, 7α,12β,20β-trihydroxycholesta-22E-en-3-one] | 66.1 ± 0.9 | 36.6 ± 1.11 | 54.3 ± 3.84 | 56.5 ± 2.15 | 76.9 ± 10.7 |  |
| COC1(OC)CC[C@@]2(C)C(CC[C@H]3C4CC[C@H]([C@@](O)(CO)[C@H](O)C[C@@H](C)[C@@H]5C[C@H]5C)[C@@]4(C)[C@H](O)C[C@@H]32)C1 (stereo partly drawn) [Compound 13, 26,27-cyclo-24,27-dimethylcholestan-3,3-dimethoxy-12β,21,20α,22α-tetraol] | 20.8 ± 2.32 | 14.9 ± 0.25 | 17.9 ± 2.26 | 12.5 ± 0.84 | 37.7 ± 10.7 |  |
| CC1CC1C(C)CC(O)C(O)(CO)[C@H]1CC[C@H]2[C@@H]3CC[C@H]4CC(=O)CC[C@]4(C)[C@H]3C[C@@H](O)[C@]12C (stereo partly drawn) [Compound 14, xestokerol A] | 34.4 ± 1.83 | 24.4 ± 3.11 | 23.8 ± 1.87 | 41.4 ± 3.24 | 65.9 ± 4.54 |  |
| C[C@@H]1C[C@H]1[C@H](C)C[C@@H](O)[C@@]1([C@H]2CC[C@H]3[C@@H]4CC[C@H]5CC(=O)CC[C@]5(C)[C@H]4C[C@@H](O)[C@]23C)CO1 [Compound 15, aragusterol A] | 37.6 ± 1.4 | 12.8 ± 0.98 | 37.93 ± 0.07 | 7.1 ± 4.76 |  | IC50 [4]: 6.11 ± 0.02 µM; IC50 [5]: 18 ± 5.74 µM |
| COC1(OC)CC[C@@]2(C)C(CC[C@H]3C4CC[C@H]([C@]5([C@@H](O)C[C@@H](C)[C@@H]6C[C@H]6C)CO5)[C@@]4(C)[C@H](O)C[C@@H]32)C1 (stereo partly drawn) [Compound 16, aragusterolketal] | 34.6 ± 3.85 | 14.6 ± 0.36 | 29.1 ± 8.25 | 11.3 ± 9.29 | 49.6 ± 6.67 |  |
| COc1cccc2c1C(=O)c1c(O)c3c(c(O)c1C2=O)C[C@@](O)(C(=O)CO)C[C@@H]3O[C@H]1C[C@H](N)[C@H](O)[C@H](C)O1 [Doxorubicin, reference compound] | 2.24 ± 0.15 |  | 0.92 ± 0.06 | 0.55 ± 0.12 |  | IC50 [4]: 0.17 ± 0.1 µM; IC50 [5]: 1.78 ± 0.54 µM; inhibition at 50 µM ([3]; MRC5, MRC-5, at 50.00 μM): 24.9% |
| COc1cc([C@@H]2c3cc4c(cc3[C@@H](O[C@@H]3O[C@@H]5CO[C@@H](C)O[C@H]5[C@H](O)[C@H]3O)[C@H]3COC(=O)[C@H]23)OCO4)cc(OC)c1O [Etoposide, reference compound] |  | 0.07 ± 0.005 |  | 31.5 ± 15.6 |  |  |
